In patent US4877881A, “Process of preparing pyrazoles, isoxazoles and analogs thereof having activity as 5-lipoxygenase inhibitors” (Warner-Lambert Company, priority 1988, dated 1989):

Columns and labels:
[1] = target: T1, cyclooxygenase (Bos taurus, UniProt O62664); test: Cyclooxygenase Enzyme Assay, bovine seminal vesicle (BSV), PGE2 formation; type: biochemical; conditions: bovine seminal vesicle powder; 100 μM arachidonic acid, 20 minutes
T1 construct: The assay consists of incubating 2 mg bovine seminal vesicle powder; from tissue; host or cells: bovine seminal vesicle powder
T1 sequence (O62664 25-600): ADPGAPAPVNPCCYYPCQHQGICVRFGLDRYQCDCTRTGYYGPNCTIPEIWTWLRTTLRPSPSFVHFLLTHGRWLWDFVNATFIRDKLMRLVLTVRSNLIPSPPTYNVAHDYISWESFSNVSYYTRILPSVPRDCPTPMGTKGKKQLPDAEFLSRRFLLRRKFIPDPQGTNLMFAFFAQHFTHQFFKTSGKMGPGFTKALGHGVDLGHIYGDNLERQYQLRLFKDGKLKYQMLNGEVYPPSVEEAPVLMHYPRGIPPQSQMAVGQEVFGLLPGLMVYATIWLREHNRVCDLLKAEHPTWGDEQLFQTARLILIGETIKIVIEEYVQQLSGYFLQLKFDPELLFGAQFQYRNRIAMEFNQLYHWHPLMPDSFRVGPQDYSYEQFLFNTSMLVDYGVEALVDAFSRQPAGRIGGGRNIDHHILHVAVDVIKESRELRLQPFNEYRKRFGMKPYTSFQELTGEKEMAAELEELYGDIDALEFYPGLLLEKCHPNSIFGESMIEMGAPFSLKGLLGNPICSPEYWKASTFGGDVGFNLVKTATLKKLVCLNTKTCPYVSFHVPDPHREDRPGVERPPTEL
Description: Cyclooxygenase Enzyme Assay
Additionally, inhibition of cyclooxygenase is considered a measure of relevance to the pathophysiology of the above noted diseases.
The assay consists of incubating 2 mg bovine seminal vesicle powder with 2 mM epinephrine, 2.5 mM reduced glutathione, 100 μM arachidonic acid, and the test agent for 20 minutes. The reaction mixture is acidified and extracted with ethyl acetate (3×1.0 ml) and the pooled extract is evaporated to dryness using a Speed Vac Concentrator or under a stream of nitrogen. The residue was dissolved in ethanol.

[2] = target: T2, 5-lipoxygenase (Homo sapiens, UniProt P09917); test: 5-Lipoxygenase Assay Using Isolated Human Leukocytes (5LOA2), 5-HETE formation; type: cell-based; conditions: inhibition of 5-HETE formation, arachidonic acid 20 μM, A23187 10 μM, read-out: 5-LO(IC50 in μM)
T2 construct: The formation of 5-HETE in human leukocytes is considered a measure of 5-lipoxygenase activity; endogenous in cells; host or cells: leukocytes isolated from fresh human blood
T2 sequence (P09917 1-674): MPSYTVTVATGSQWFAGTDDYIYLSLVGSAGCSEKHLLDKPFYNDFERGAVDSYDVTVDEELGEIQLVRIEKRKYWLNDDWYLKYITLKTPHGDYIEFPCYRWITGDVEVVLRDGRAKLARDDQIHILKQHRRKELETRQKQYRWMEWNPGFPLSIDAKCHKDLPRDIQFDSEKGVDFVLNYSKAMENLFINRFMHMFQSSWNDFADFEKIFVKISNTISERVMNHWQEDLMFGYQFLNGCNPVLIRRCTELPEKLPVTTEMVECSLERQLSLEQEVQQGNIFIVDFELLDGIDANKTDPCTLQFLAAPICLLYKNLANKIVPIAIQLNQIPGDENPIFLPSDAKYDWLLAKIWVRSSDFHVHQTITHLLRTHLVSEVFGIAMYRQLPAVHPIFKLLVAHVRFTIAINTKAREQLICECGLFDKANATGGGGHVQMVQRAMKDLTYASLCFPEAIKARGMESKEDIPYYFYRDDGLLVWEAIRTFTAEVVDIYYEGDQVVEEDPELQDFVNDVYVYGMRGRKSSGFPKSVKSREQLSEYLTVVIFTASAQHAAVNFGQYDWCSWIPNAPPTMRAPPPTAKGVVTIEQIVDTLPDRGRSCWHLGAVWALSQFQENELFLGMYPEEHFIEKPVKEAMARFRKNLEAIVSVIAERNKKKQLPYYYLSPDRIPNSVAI
Description: 5-Lipoxygenase Assay Using Isolated Human Leukocytes (5LOA2)
The formation of 5-HETE in human leukocytes is considered a measure of 5-lipoxygenase activity. The protocol is described in the following.
Fresh heparinized or EDTA treated human blood is mixed with 6% dextran-3% dextrose in isotonic saline in the ratio 0.25 ml dextran solution per 1.0 ml blood. After mixing the blood is allowed to sit at room temperature for about 90 minutes while the RBC's settle. During this period, the plasma is removed with a plastic pipette to nalgens tubes.
The pellet, consisting of leukocytes and erythrocytes, is treated with 10 ml 0.87% ammonium chloride at room temperature for four minutes, lysing the red cells. At the end of four minutes the cells are diluted with a 2x volume of phosphate buffered saline, pH 7.4, and centrifuged for ten minutes. The cells are washed three times with the phosphate buffered saline. Any of the pelleted cell matter which is not easily resuspended is discarded during the washings--the material contains platelets (12-lipoxygenase activity).
After washing, the cells are resuspended in phosphate buffered saline containing 1.0 mM 'calcium and 0.5 mM magnesium. After counting, the cells are diluted to 1.5-2.0×10^7 leukocytes per milliliter.
To each polypropylene reaction tube is added 0.48 ml leukocytes in Ca-Mg phosphate buffered saline, pH 7.4; 1-5 μl test compound dissolved in DMSO and buffer; or DMSO for control tubes.
The tubes preincubate at 37° C. for five minutes.
The reaction is started by adding 20 μl of the following, 0.5 μl, 20 mM arachidonic acid--final concentration=20 μM; 1 μl, 5 mM calcium ionophore A23187--final concentration=10 μM; and 18.5 μl buffer.
The reaction proceeds for five minutes, then is stopped by adding 0.5 ml, 0.5 mM ice-cold Tris buffer, pH 8.0. The tubes are chilled on ice for ten minutes and then extracted three times with a total of 3.5 ml ethyl acetate (3.0 ml removed).
The tubes can be stored at this point. For extended storage, the tubes should be filled with nitrogen.
The ethyl acetate is evaporated with a Sorvall Speed-Vac. The residue is dissolved in ethanol. The tubes can also be stored at this point at -20° C. under nitrogen.
A portion of the ethanol solution is injected into the HPLC system for 5-HETE quantitation.
Injections are made automatically with a Waters WISP 710B. The pump is a Spectra Physics SP8700. […] An RP C-18 column is used. The solvent system is isocratic; the solvent is 70% methanol and 30% 0.01M sodium acetate, pH 5.7, pumped at 1.0 ml/min. […] Using a 15 cm Alltech Nucleosil C-18 5 μM column provides for a sample turnaround time of about 16 minutes.

[3] = target: T3, cyclooxygenase (Rattus norvegicus, UniProt Q63921); test: ARBC Whole Cell Cyclooxygenase Assay in RBL-1 cells (PGF2α RIA); type: cell-based; conditions: RBL-1 intact cell cyclooxygenase; A23187 5 μM
T3 construct: RBL-1 intact cell cyclooxygenase IC50 values; endogenous in cells; host or cells: RBL-1 rat basophilic leukemia cells (American Type Culture Collection)
T3 sequence (Q63921 27-602): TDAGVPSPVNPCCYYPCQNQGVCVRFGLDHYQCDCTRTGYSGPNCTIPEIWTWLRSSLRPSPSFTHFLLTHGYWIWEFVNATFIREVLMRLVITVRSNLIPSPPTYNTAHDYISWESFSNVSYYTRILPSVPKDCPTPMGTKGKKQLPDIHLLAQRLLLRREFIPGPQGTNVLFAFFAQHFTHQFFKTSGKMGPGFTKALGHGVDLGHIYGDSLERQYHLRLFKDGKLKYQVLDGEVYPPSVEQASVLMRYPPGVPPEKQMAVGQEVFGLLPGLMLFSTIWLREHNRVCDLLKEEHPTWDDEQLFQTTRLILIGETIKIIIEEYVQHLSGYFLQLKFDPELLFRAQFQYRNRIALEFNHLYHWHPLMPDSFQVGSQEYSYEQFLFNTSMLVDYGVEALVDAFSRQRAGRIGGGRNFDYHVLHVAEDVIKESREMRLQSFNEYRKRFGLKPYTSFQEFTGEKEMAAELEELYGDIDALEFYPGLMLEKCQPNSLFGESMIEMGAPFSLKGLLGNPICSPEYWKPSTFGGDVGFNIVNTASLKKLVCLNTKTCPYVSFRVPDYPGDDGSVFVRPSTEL
Description: (§1) ARBL/ARBC Whole Cell 5-Lipoxygenase and Cyclooxygenase Assays
(§2) The rat basophilic leukemia cell line (RBL-1) was obtained from the American Type Culture Collection (Rockville, Md.).
(§3) Radioimmuno assay (RIA) kits of LTB4 and PGF2α were obtained from Amersham (Arlington Heights, Ill.) and Seragen (Boston, Mass.) respectively.
(§4) All tissue culture media were obtained from GIBO (Gran Island, N.Y.).
(§5) RBL-1 cells were grown in culture (suspension) in Eagle's minimum essential medium supplemented with 12% fetal bovine serum and 1:100 antibiotic-antimycotic mixture at 37° C. in an incubator supplied with air-5% carbon dioxide. Cells were harvested by centrifugation. They were washed with cold phosphate buffered saline pH 7.4 (PBS; NaCl, 7.1 g; Na2 HOP4, 1.15 g; KH2 PO4, 0.2 g; and KCl, 0.2 g/L). […] Calcium ionophore A23187 (5 μM) was added and cells were incubated for seven minutes at 37° C. The reaction was stopped by chilling the tubes in ice for ten minutes. Cells were separated by centrifugation and the supernatant was stored at -20°. Aliquots (100 μl) were analyzed for LTB4 and PGF2α using radioimmuno assay kits as provided by the supplier.

[4] = target: T4, 5-lipoxygenase (Rattus norvegicus, UniProt P12527); test: ARBL Whole Cell 5-Lipoxygenase Assay in RBL-1 cells (LTB4 RIA); type: cell-based; conditions: RBL-1 intact cell 5-lipoxygenase; A23187 5 μM
T4 construct: ARBL/ARBC Whole Cell 5-Lipoxygenase and Cyclooxygenase Assays; endogenous in cells; host or cells: RBL-1 rat basophilic leukemia cells (American Type Culture Collection)
T4 sequence (P12527 1-673): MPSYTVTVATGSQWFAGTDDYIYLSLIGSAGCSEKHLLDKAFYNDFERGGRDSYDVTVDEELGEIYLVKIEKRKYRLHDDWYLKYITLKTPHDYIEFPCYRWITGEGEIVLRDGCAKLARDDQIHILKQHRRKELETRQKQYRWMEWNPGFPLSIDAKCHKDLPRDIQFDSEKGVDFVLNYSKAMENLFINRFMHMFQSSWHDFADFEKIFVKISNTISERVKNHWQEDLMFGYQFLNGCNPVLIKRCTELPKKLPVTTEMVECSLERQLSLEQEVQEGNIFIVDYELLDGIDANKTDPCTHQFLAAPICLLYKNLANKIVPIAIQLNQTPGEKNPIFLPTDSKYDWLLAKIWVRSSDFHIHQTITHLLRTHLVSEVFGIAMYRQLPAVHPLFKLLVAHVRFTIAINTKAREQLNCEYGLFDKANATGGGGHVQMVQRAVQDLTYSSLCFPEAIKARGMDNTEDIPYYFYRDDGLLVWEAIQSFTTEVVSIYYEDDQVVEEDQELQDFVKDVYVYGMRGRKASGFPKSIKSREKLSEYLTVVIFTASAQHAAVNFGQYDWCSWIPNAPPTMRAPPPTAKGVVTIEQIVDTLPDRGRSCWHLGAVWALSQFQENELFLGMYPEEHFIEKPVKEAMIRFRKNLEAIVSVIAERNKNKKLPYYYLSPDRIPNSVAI
Description: as §1, §2, §3, §4, §5

| IC50 [1] | IC50 [2] | IC50 [3] | IC50 [4] | SMILES |
| --- | --- | --- | --- | --- |
| 56 µM | 7.5 µM | – | – | CCc1cc(C=Cc2ccc(O)c(OC)c2)n[nH]1 [Example 9, 3-[β-(4'-Hydroxy-3'-methoxyphenyl)ethenyl]-5-ethylpyrazole] |
| 31 µM | 29 µM | – | – | COc1cc(CCc2cc(CCc3ccc(O)c(OC)c3)on2)ccc1O [Example 12, 3,5-Bis[β-(4'-hydroxy-3'-methoxyphenyl)ethyl]isoxazole] |
| – | 18 µM | 11 µM | 5.2 µM | CCOC(=O)c1cc(C=Cc2ccc(O)c(OC)c2)n[nH]1 [Example 10, Ethyl-3-[β-(3-methoxy-4-hydroxyphenyl)ethenyl]-1H-pyrazole-5-carboxylate] |

More lines, now with the values behind:

| SMILES | IC50 [1] | IC50 [2] | IC50 [3] | IC50 [4] |
| --- | --- | --- | --- | --- |
| COc1cc(CCc2cc(CCc3ccc(O)c(OC)c3)[nH]n2)ccc1O [Example 2, 3,5-Bis[β-(4'-hydroxy-3'-methoxyphenyl)ethyl]pyrazole] | 67 µM | 53 µM | – | – |
| COc1cc(C=Cc2cc(-c3ccccc3)[nH]n2)ccc1O [Example 4, 3-[β-(4'-Hydroxy-3'-methoxyphenyl)ethenyl]-5-phenylpyrazole] | 40 µM | 4.3 µM | – | – |
| COc1cc(CCc2cc(C)n[nH]2)ccc1O [Example 6, 3-[β-(4'-Hydroxy-3'-methoxyphenyl)ethyl]-5-methylpyrazole] | – | > 20 µM | – | – |
| COc1ccc(C=Cc2cc(C)[nH]n2)cc1O [Example 8, 3-[β-(4'-Methoxy-3'-hydroxyphenyl)ethenyl]-5-methylpyrazole] | – | > 20 µM | – | – |
| Oc1ccc(CCc2cc(CCc3ccc(O)cc3)[nH]n2)cc1 [Example 3, 3,5-Bis[β-(4'-hydroxyphenyl)ethyl]pyrazole] | 44 µM | 15 µM | – | – |
